Source: patent US10813941B2, “Methods and compounds for treating malaria” (THE GEORGE WASHINGTON UNIVERSITY, A CONGRESSIONALLY …, priority 2016, dated 2020)
Like-named read-outs stand apart in the source and are kept apart here.

Key:
P. falciparum strain 3D7 = test: IPP rescue of growth inhibition; format: cell-based, Plasmodium falciparum; conditions: 250 μM IPP; RCB-185 1.2 nM-590.5 nM
Procedure: (§1) Asynchronous P. falciparum cultures were diluted to 1% parasitemia and were treated with FR900098 analogs at concentrations ranging from 0.25 ng/ml-100 μg/ml. Growth inhibition assays were performed in opaque 96-well plates at 100 μl culture volume. After 3 days, parasite growth was quantified by measuring DNA content using PicoGreen (Life Technologies), as described. Fluorescence was measured on a FLUOstar Omega microplate reader (BMG Labtech) at 485 nm excitation and 528 nm emission. Half maximal inhibitory concentration (IC50) values were calculated by nonlinear regression analysis using GraphPad Prism software. For isopentenyl pyrophosphate (IPP) (Echelon) rescue experiments, 250 μM IPP was added to the appropriate wells for the duration of the experiment.

P. falciparum 7G8 = test: P. falciparum growth inhibition assay, strain 7G8; format: cell-based, Plasmodium falciparum; conditions: P. falciparum 7G8 (quinine, chloroquine, and pyrimethamine resistant), 72 h
Procedure: as §1

P. falciparum D10 = test: P. falciparum growth inhibition assay, strain D10; format: cell-based, Plasmodium falciparum; conditions: P. falciparum D10 (mefloquine resistant), 72 h
Procedure: as §1

[1] = system: P. falciparum had1+HAD1-GFP; test: P. falciparum growth inhibition assay, complemented strain had1+HAD1-GFP; format: cell-based, Plasmodium falciparum; conditions: had1 mutant supplied with WT copy of had1, FIG. 3 panel B
From the text: (§2) P. falciparum strains were obtained through the MR4 as part of the BEI Resources Repository, NIAID NIH (www.mr4.org): Plasmodium falciparum 3D7 (wild-type, WT), Plasmodium falciparum K1 (MRA-159; chloroquine and sulfadoxine-pyrimethamine resistant) deposited by D E Kyle, and Plasmodium falciparum IPC 5202 Battambang Cambodia 2011 (MRA-1240; chloroquine and artemisinin resistant) deposited by Didier Menard at the Institut Pasteur du Cambodge. The P. falciparum mutant containing increased levels of MEP pathway metabolites had1 (MRA-1257), and its compliment had1+PfHad1-GFP (MRA-1258), were generated in strain 3D7 as reported (BEI Resources; Guggisburg 2014). […]
as §1, with “Growth inhibition assays were performed in opaque 96-well plates at 100 μl culture volume.” left out, “For isopentenyl pyrophosphate (IPP) (Echelon) rescue experiments, 250 μM IPP was added to the appropriate wells for the duration of the experiment.” left out

P. falciparum Battambang = test: P. falciparum growth inhibition assay, strain Battambang; format: cell-based, Plasmodium falciparum; conditions: P. falciparum Battambang (chloroquine and artemisinin resistant), 72 h
From the text: as §2
as §1, with “Growth inhibition assays were performed in opaque 96-well plates at 100 μl culture volume.” left out, “For isopentenyl pyrophosphate (IPP) (Echelon) rescue experiments, 250 μM IPP was added to the appropriate wells for the duration of the experiment.” left out

P. falciparum D6 = test: P. falciparum growth inhibition assay, strain D6; format: cell-based, Plasmodium falciparum; conditions: P. falciparum D6 (mefloquine resistant), 72 h
Procedure: as §1

[2] = system: MEP pathway in P. falciparum strain 3D7; test: MEP pathway metabolite levels by LC-MS/MS; format: cell-based, Plasmodium falciparum; conditions: for reduction in MEcPP levels: 10 h
Procedure: P. falciparum strain 3D7 was cultured at 37° C. in 30 ml volumes in 100 mm tissue culture dishes (Techno Plastic Products) at 4% hematocrit until >8% parasitemia. […] Cultures were then lysed with 5% saponin, the parasite pellets washed with 1× phosphate-buffered saline (PBS), and the pellets stored at −80° C. Samples were extracted via addition of 600 μl of ice-cold extraction solvent [chloroform, methanol, and acetonitrile (2:1:1, v/v/v)] and two liquid nitrogen-cooled 3.2 mm stainless steel beads, followed by homogenization in the Tissue-Lyser II instrument (Qiagen, Valencia, Calif.) at 20 Hz for 5 min in a cold sample rack. Ice-cold water (600 μl) was added, and samples were homogenized for an additional 5 min at 20 Hz. After centrifugation (14,000 rcf at 4° C. for 5 min), the polar upper phase was aspirated and lyophilized. Dried samples were dissolved in 100 μl water and analyzed by LC-MS/MS.
The 4000QTRAP LC-MS/MS system (AB Sciex) was used in multiple-reaction monitoring (MRM) mode using negative ionization. The detailed instrument configuration and compound-dependent parameters for isoprenoid precursors were as previously described (Zhang 2011). LC separation prior to MRM detection was achieved by ion pair reverse-phase chromatography as described previously, with 10 mM tributylammonium acetate (pH 5.1-5.5) used as the ion pair reagent and the following modifications: (1) RP-hydro 100 mm×2.0 mm, 2.5 μm high performance liquid chromatography column (Phenomenex), (2) flow rate of 0.14 ml/min, (3) solvent A of 10 mM tributylammonium acetate in 5% methanol, (4) binary LC gradient (20% solvent B (100% methanol) from 0 to 2.5 min, 30% B for 12.5 min, 80% B for 5 min, and column equilibration at for 5 min), and (5) autosampler injection volume of 20 μl. For DOXP and MEcPP metabolites, one-way ANOVA was used to test for significance (VassarStats). A t-test was used to test for significance between UNT and 1× RCB-185 CDP-ME levels (VassarStats).

P. falciparum K1 = test: P. falciparum growth inhibition assay, strain K1; format: cell-based, Plasmodium falciparum; conditions: P. falciparum K1 (chloroquine and sulfadoxine-pyrimethamine resistant), 72 h
From the text: as §2
as §1, with “Growth inhibition assays were performed in opaque 96-well plates at 100 μl culture volume.” left out, “For isopentenyl pyrophosphate (IPP) (Echelon) rescue experiments, 250 μM IPP was added to the appropriate wells for the duration of the experiment.” left out

[3] = system: P. falciparum strain NF54 gametocytes; test: Gametocyte assay (flow cytometry); format: cell-based, Plasmodium falciparum; conditions: 72 h, 5 μM to 0.001 μM
Procedure: The next day, the parasites were resuspended at 10% gametocytemia, and 2% hematocrit.
A 96-well plate was prepared with 2× concentration of RCB-185 ranging 10 μM to 0.002 μM in complete RPMI with 1% DMSO as well as a positive control, 65 nM epoxomicin, and a negative control, 1% DMSO. Percoll purified NF54 strain P. falciparum gametocytes were added to individual wells at 2% hematocrit and 10% parasitemia in a 1:1 dilution, resulting in a final 1% hematocrit and a two-fold dilution of RCB-185 for a final concentration range of 5 μM to 0.001 μM and a final 0.5% DMSO, 32.5 nM epoxomicin. The plate was gassed with 90% N2, 5% O2, 5% CO2 and incubated at 37° C. with compound for 72 h. Following incubation, cells were analyzed using flow cytomtetry as described below.
Cells were incubated at a final 0.1% hematocrit in 50 nM DiIC(1)5 with buffer containing 1.67 mg/ml glucose, 8 mg/mL NaCl, 8 mM Tris-Cl (pH 7.4) and incubated at 37° C. for 20-30 minutes prior to analysis on BD Accuri C6 flow cytometer. Uninfected RBCs and unstained P. falciparum infected RBCs were incubated with MitoProbe DiIC1(5) as controls to determine the threshold for MitoProbe DiIC1(5) (640 nm laser excitation and FL4 emission filter [675/25 nm]) positive, single, and intact cell populations. One-way ANOVA was used to test for significance between the three treatment groups (VassarStats).

P. berghei ANKA = test: Mouse model of malaria, P. berghei asexual blood stages (luciferase); format: in vivo, Swiss Webster mice
Procedure: In vivo testing of RCB-185 against intraerythrocytic P. berghei parasites was performed by the Anti-Infectives Screening Core at NYU School of Medicine. Briefly, groups of 5-7 female Swiss Webster mice weighing 25-30 g were infected via intraperitoneal injection with 10^3 transgenic P. berghei ANKA that express a fusion GFP (mutant 3) and firefly luciferase (LucIAV) fusion under the control of the constitutive eeflaα promoter that is stably integrated into the 230p locus (PbGFP-Luccon). Two days post-infection, mice were treated by intraperitoneal injection with 50 mg/kg of the test compound RCB-185 or 20 mg/kg chloroquine or 2% methyl cellulose, 0.5% tween-80 as positive and vehicle controls, respectively. Treatment continued once a day for 5 days. At 7 days post-infection, mice were administered 2.5% isofluorane via a nose cone, and once anesthesized, were injected i.p. with 150 mg/kg of D-Luciferin Potassium-salt (Goldbio) dissolved in PBS. Mice were imaged 5-10 min after injection of luciferin with an IVIS 100 (Xenogen, Alameda, Calif.) and data acquisition and analysis were performed with Livinglmage (Xenogen) to quantify the level of infection. To test for significance between vehicle- and RCB-185-treated mice, a t-test was used (VassarStats).

[4] = system: P. falciparum had1 (PfHad1 loss-of-function strain); test: microbe, parasite or virus in culture; format: cell-based, Plasmodium falciparum
From the text: (§3) P. falciparum strains were obtained through the MR4 as part of the BEI Resources Repository, NIAID NIH (www.mr4.org): Plasmodium falciparum 3D7 (wild-type, WT), Plasmodium falciparum K1 (MRA-159; chloroquine and sulfadoxine-pyrimethamine resistant) deposited by D E Kyle, and Plasmodium falciparum IPC 5202 Battambang Cambodia 2011 (MRA-1240; chloroquine and artemisinin resistant) deposited by Didier Menard at the Institut Pasteur du Cambodge. The P. falciparum mutant containing increased levels of MEP pathway metabolites had1 (MRA-1257), and its compliment had1+PfHad1-GFP (MRA-1258), were generated in strain 3D7 as reported (BEI Resources; Guggisburg 2014). Parasites were cultured in a 2% suspension of human erythrocytes and RPMI 1640 (Sigma) medium supplemented with 27 mM sodium bicarbonate, 11 mM glucose, 5 mM HEPES, 1 mM sodium pyruvate, 0.37 mM hypoxanthine, 0.01 mM thymidine, 10 μg/ml gentamicin, and 0.5% albumax (Gibco) at 37° C., 5% O2/5% CO2/90% N2 atmosphere as previously described (Zhang 2011).
as §1

P. falciparum 3D7 = test: P. falciparum growth inhibition assay (PicoGreen, 72 h), strain 3D7; format: cell-based, Plasmodium falciparum
From the text: as §3, §1

P. falciparum = conditions: cited from earlier work
[5] = mouse, oral administration; cited from earlier work
[6] = rat, oral administration; cited from earlier work
[7] = cited from earlier work
[8] = Plasmodium falciparum, P. falciparum 3D7 (pan-sensitive, lab adapted), asynchronous, 72 h, mean±SEM

Question: What does the source list for CC(=O)N(O)C/C=C/P(=O)(OCOC(=O)C(C)(C)C)OCOC(=O)C(C)(C)C [RCB-185]?
Answer: rescue of growth by IPP (P. falciparum strain 3D7): supports growth of P. falciparum treated with RCB-185 at all concentrations tested; IC50 (P. falciparum 7G8): 46.7 ± 10.9 nM; IC50 (P. falciparum D10): 42.5 ± 11.5 nM; IC50 [1]: 26 ± 6.4 nM; IC50 (P. falciparum Battambang): 21.1 ± 1.8 nM; IC50 (P. falciparum D6): 37.6 ± 10 nM; reduction in MEcPP levels ([2]; 1× the IC50 value of 18.3 nM): 3.0 fold; reduction in MEcPP levels ([2]; 7.5× the IC50 value of 18.3 nM): 5.7 fold; DOXP levels versus untreated ([2]; 10 h treatment, 1× or 7.5× IC50): no significant difference; CDP-ME levels ([2]; 10 h treatment, limit of detection 1.25 ng/mL): below the limits of detection; MEP levels ([2]; 10 h treatment, limit of detection 12.5 ng/ml): below the limits of detection; IC50 (P. falciparum K1): 31.9 ± 1 nM; killing of gametocytes [3]: failure of RCB-185 to kill gametocytes; adverse effects in mice (P. berghei ANKA; 50 mg/kg i.p. once a day): no adverse effects were observed; drop in parasite load compared to vehicle (P. berghei ANKA; 50 mg/kg i.p. once a day, luciferase signal 7 days post-infection): > 3 log; fold more resistant, had1 versus WT parasites ([4]; had1 IC50 versus WT IC50): 3.8 fold; IC50 ([4]; had1 mutant (FSM-resistant), FIG. 3, mean±SEM, read-out: IC50): 76.5 ± 18.5 nM; fold lower IC50 than FSM (P. falciparum 3D7; 3D7, RCB-185 versus FSM): 50 fold; IC50 (P. falciparum 3D7; P. falciparum 3D7 (pan-sensitive, lab adapted), asynchronous, 72 h, mean±SEM): 18.3 ± 1.9 nM; IC50 (P. falciparum 3D7; parent strain 3D7 (WT) in had1 comparison, FIG. 3, mean±SEM): 19.9 ± 4.2 nM

Question: For C[C@@H]1CC[C@H]2[C@@H](C)C(=O)O[C@@H]3O[C@@]4(C)CC[C@@H]1[C@]32OO4 [artemisinin, reference compound], which IC50 (P. falciparum 3D7; [8]) is on record?
Answer: 10.4 ± 1.6 nM

Question: With O=CN(O)CCCP(=O)(O)O [FSM, fosmidomycin, reference compound] as the molecule, how does the “rescue of growth by IPP” value (P. falciparum strain 3D7) read?
Answer: rescues

Question: What about the IC50 (P. falciparum 7G8; Plasmodium falciparum) of the same molecule?
Answer: 1240 ± 189 nM

Question: And the “tolerability in human patients” value (P. falciparum; human, in vivo)?
Answer: well-tolerated

Question: And the parasite clearance (P. falciparum; mean±standard deviation)?
Answer: 44 ± 18 h

Question: What about the LD50 [5] of the same molecule?
Answer: > 11,000 mg/kg

Question: What about the IC50 (P. falciparum D10; Plasmodium falciparum) of the same molecule?
Answer: 2180 ± 353 nM

Question: What about the IC50 (P. falciparum Battambang; Plasmodium falciparum) of the same molecule?
Answer: 863 ± 248 nM

Question: What about the LD50 [6] of the same molecule?
Answer: > 11,000 mg/kg

Question: What about the serum half-life ([7]; in vivo) of the same molecule?
Answer: 1.87 h

Question: And the bioavailability ([7]; oral dosing)?
Answer: 20-40%

Question: What about the IC50 (P. falciparum D6; Plasmodium falciparum) of the same molecule?
Answer: 1340 ± 247 nM

Question: And the IC50 (P. falciparum K1; Plasmodium falciparum)?
Answer: 837 ± 141 nM

Question: And the IC50 ([4]; Plasmodium falciparum)?
Answer: 5350 ± 831 nM

Question: And the IC50 (P. falciparum 3D7; [8])?
Answer: 1020 ± 77.8 nM

Question: What about the IC50 (P. falciparum 3D7; Plasmodium falciparum, parent strain 3D7 (WT) in had1 comparison, FIG. 3, mean±SEM) of the same molecule?
Answer: 1160 ± 158 nM

Question: Which “luciferase signal (parasite burden)” value (P. berghei ANKA; 20 mg/kg i.p. once a day, 7 days post-infection) does the source give for CCN(CC)CCCC(C)Nc1ccnc2cc(Cl)ccc12 (stereo not shown) [chloroquine, reference compound] here?
Answer: below the limit of detection
